Results: patent US20180271863A1, “TARGETING P2 PURINERGIC RECEPTORS TO TREAT HEPATOCELLULAR CARCINOMA (HCC)” (Baylor College of Medicine, priority 2015, published 2018)
“Also recorded” adds a separate entry of the source.

Columns and labels:
[1] = test system: human hepatocytes; experiment: Western blotting of cyclin proteins in human hepatocytes; type: cell-based
Method: Normal human primary hepatocytes isolated from healthy adults (no known history of HCC) in suspension or freshly-frozen prior to shipment (Cryoport Systems, CA) were purchased from Triangle Research Labs, NC. Fresh hepatocytes were plated on collagen-coated tissue culture plates or glass coverslips in Williams E complete media with additives (10% fetal bovine serum, 2 mM glutamine, […] insulin, 4 ng/ml glucagon, […] transferrin, 2.5 ng/ml sodium selenite, 10,000 U/ml penicillin, […] streptomycin, 50 g/ml gentamycin) for 3 h to ensure hepatocyte adherence to plates. Subsequently, hepatocytes were maintained in Williams E minimal media free from serum and growth factors for 24 h prior to treatment. Human hepatocellular carcinoma derived Huh7, and Hep3B, were cultured in Minimum Essential Medium Eagle (MEM); SNU-387 was cultured in Roswell Park Memorial Institute (RPMI) medium and PLC/PRF/5 cultured in Dulbecco's Modified Eagle's medium (DMEM). All maintenance culture media were supplemented with 10% fetal bovine serum (FBS), L-Glutamine (2 mM), penicillin (100 units/ml) and streptomycin ([…]) at 37° C. and 5% CO2. Cells were maintained in serum free media (containing 2 mM L-Glutamine, 100 units/ml penicillin and ([…])) streptomycin for 24 h prior to treatment. Total protein extracts were obtained by homogenizing cells in total lysis buffer (50 mM Tris-HCl, pH 7.5, 0.5 M NaCl, 2 mM EGTA, 2 mM EDTA, 1.0% Triton X-100, 0.25% Deoxycholate, 1 m/ml pepstatin, 1.0 m/ml leupeptin, 1.0 m/ml aprotinin, 1.0 mM phenylmethylsulfonyl fluoride, 1.0 mM Dithiothreitol, 2.0 mM activated Na3VO4, and 2.0 mM NaF) and centrifuging at 14,000 rpm for 10 min (4° C.). Equal amounts of total proteins as determined by BCA protein Assay (Pierce, Rockford, Ill.) were analyzed by Western blotting. Blots were probed with antibody specific for a-tubulin or GAPDH to ensure equal loading of proteins in each lane.

[2] = test system: Hep3B cells; experiment: BrdU incorporation (proliferation) in Hep3B cells; type: cell-based, human
Method: Light microscopic images (10X) of BrdU immunostained cells are also shown. Hep3B cells were maintained in serum-free conditions for 24 hours and were pre-treated with AF-353 (5 μM) for 30 minutes, prior to treatment with ATP (100 μM) for 24 hours. BrdU-positive cells are expressed as a percentage of total number of cells. Data represents mean±SEM, n=3-6, *p<0.05 vs untreated (un). To determine whether P2 purinergic receptor activation influences HCC cell proliferation, BrdU incorporation was assessed in HCC cells maintained in SFM for 24 hours and treated with ATP for 24 hours. […] Hep3B, 46%; SNU-387, 47% and PLC/PRF/5, 24%), identifying nucleotides as liver cancer cell mitogens (FIG. 7A). Normal human primary hepatocytes isolated from healthy adults (no known history of HCC) in suspension or freshly-frozen prior to shipment (Cryoport Systems, CA) were purchased from Triangle Research Labs, NC. […] Formalin-fixed and paraffin embedded liver sections from HCC patients were analyzed by immunohistochemistry with anti-P2X3 antibody (Abcam, Cambridge, Mass.). […] BrdU positive cells were counted and expressed as a percentage of the total number of cells in ten randomly selected high-power fields (20×) per coverslips.

[3] = test system: human hepatocytes; experiment: MTT assay of cell proliferation and viability, human hepatocytes; type: cell-based; conditions: 18 h treatment
Method: Normal human primary hepatocytes isolated from healthy adults (no known history of HCC) in suspension or freshly-frozen prior to shipment (Cryoport Systems, CA) were purchased from Triangle Research Labs, NC. Fresh hepatocytes were plated on collagen-coated tissue culture plates or glass coverslips in Williams E complete media with additives (10% fetal bovine serum, 2 mM glutamine, […] insulin, 4 ng/ml glucagon, […] transferrin, 2.5 ng/ml sodium selenite, 10,000 U/ml penicillin, […] streptomycin, 50 g/ml gentamycin) for 3 h to ensure hepatocyte adherence to plates. Subsequently, hepatocytes were maintained in Williams E minimal media free from serum and growth factors for 24 h prior to treatment. Human hepatocellular carcinoma derived Huh7, and Hep3B, were cultured in Minimum Essential Medium Eagle (MEM); SNU-387 was cultured in Roswell Park Memorial Institute (RPMI) medium and PLC/PRF/5 cultured in Dulbecco's Modified Eagle's medium (DMEM). All maintenance culture media were supplemented with 10% fetal bovine serum (FBS), L-Glutamine (2 mM), penicillin (100 units/ml) and streptomycin ([…]) at 37° C. and 5% CO2. […]
Cell viability was determined using the 3-(4, 5-dimethylthiazol-2-yl)-2,5-diphenyltetrazolium (MTT, Sigma) assays. […] After shaking the plates for 30 min, the absorbance at 570 nm was measured (background subtraction at […]).

Compound | effect on ATP-mediated induction of cyclin D3 and cyclin E expression ([1]; AF-353 5 μM pre-treatment, ATP 24 h) | effect on ATP-mediated induction of BrdU incorporation ([2]; AF-353 5 μM pre-treatment 30 minutes, ATP 100 μM 24 hours) | increase in cell proliferation and viability (MTT) [3] | proliferation (BrdU incorporation) induced by ATP ([2]; SFM 24 hours, ATP 24 hours) | cyclin D3 protein expression ([1]; ATPγS 24 h) | cyclin E protein expression ([1]; ATPγS 24 h)
COc1cc(C(C)C)c(Oc2cnc(N)nc2N)cc1I [AF-353] | completely attenuated | completely attenuated; also recorded: attenuates | – | – | – | –
Nc1ncnc2c1ncn2[C@@H]1O[C@H](COP(=O)(O)OP(=O)(O)OP(=O)(O)O)[C@@H](O)[C@H]1O [ATP] | – | – | 27% | 46% | – | –
Nc1ncnc2c1ncn2[C@@H]1O[C@H](COP(=O)(O)OP(=O)(O)OP(O)(O)=S)[C@@H](O)[C@H]1O [ATPγS] | – | – | 64% | – | 2.0 fold | 2.0 fold
